Experimental data reported in patent publication US10052331B2, “3-(3H-imidazo[4,5-C]pyridin-2-yl)-1H-pyrazolo[3,4-C]pyridine and therapeutic uses thereof” (Samumed, LLC, priority 2014, dated 2018).

Key:
[1] = tested on: Wnt activity (Wnt-responsive Sp5 promoter-luciferase reporter in SW480 cells); assay: Wnt activity screening assay: Sp5-Luc reporter gene in SW480 colon carcinoma cells; format: cell-based; conditions: Homo sapiens
From the text: The screening assay for Wnt activity is described as follows. Reporter cell lines can be generated by stably transducing cancer cell lines (e.g., colon cancer) or primary cells (e.g., IEC-6 intestinal cells) with a lentiviral construct that includes a Wnt-responsive promoter driving expression of the firefly luciferase gene.
SW480 colon carcinoma cells were transduced with a lentiviral vector expressing luciferase with a human Sp5 promoter consisting of a sequence of eight TCF/LEF binding sites. SW480 cells stably expressing the Sp5-Luc reporter gene and a hygromycin resistance gene were selected by treatment with 150 μg/ml of hygromycin for 7 days. These stably transduced SW480 cells were expanded in cell culture and used for all further screening activities. For Sp5-Luc reporter gene assays, the cells were plated at 10,000 cells/well in 96-well plates with growth medium containing 10% fetal calf serum and incubated overnight at 37° C. and 5% CO2. Each compound was dissolved in DMSO as a 10 mM stock in standard j-vials and used to prepare compound source plates in dose-response format with 3-fold serial dilutions and a 10 mM top concentration. Compound transfer from serially diluted source plates to assay plates containing the cells was accomplished using a pintool (Multimek 96, Beckman equipped with V&P Scientific FP1S50H pins) based liquid handling protocol. This protocol used a slotted pin to transfer 50 nl of compound from a source plate well to an assay plate well containing 50 μl of cells in growth medium. […] Control wells received 50 nl of DMSO treatment for normalization and calculating IC50 values. The treated cells were incubated at 37° C. and 5% CO2 for an additional forty-two hours. Following incubation, the growth medium was removed and 50 μl of BrightGlo luminescence reagent (Promega) was added to each well of the 96-well assay plates. The plates were placed on an orbital shaker for 5 min and then luminescence was quantified on the Victor3 (Perkin Elmer) plate reader. Readings were normalized to DMSO only treated cells, and normalized activities were utilized for IC50 calculations using the dose-response log (inhibitor) vs. response-variable slope (four parameters) nonlinear regression feature available in GraphPad Prism 5.0 or 6.0.

[2] = tested on: primary human fibroblasts derived from IPF patients (LL29 cells); assay: Inhibition of fibrotic process: αSMA staining in TGF-β1-treated primary human fibroblasts from IPF patients (LL29 cells); format: cell-based; conditions: Fibroblast, 96 h, LL29 cells treated with TGF-β1 (20 ng/mL), 4 days, 11-point dose-response from 10 μM to 1.87 nM, read-out: Inhibition of fibrosis EC50
From the text: The above synthesized compounds were screened using primary human fibroblasts (derived from IPF patients) treated with TGF-β1 to determine their ability to inhibit the fibrotic process.
Primary human fibroblasts derived from IPF patients (LL29 cells) [^1Xiaoqiu Liu, et. al., “Fibrotic Lung Fibroblasts Show Blunted Inhibition by cAMP Due to Deficient cAMP Response Element-Binding Protein Phosphorylation”, Journal of Pharmacology and Experimental Therapeutics (2005), 315(2), 678-687; ^2Watts, K. L., et. al., “RhoA signaling modulates cyclin D1 expression in human lung fibroblasts; implications for idiopathic pulmonary fibrosis”, Respiratory Research (2006), 7(1), 88] were obtained from American Type Culture Collection (ATCC) and expanded in F12 medium supplemented with 15% Fetal Bovine Serum and Penicillin/Streptomycin.
Each compound was dissolved in DMSO as a 10 mM stock and used to prepare compound source plates. Serial dilution (1:2, 11-point dose-response curves from 10 μM to 1.87 nM) and compound transfer was performed using the ECHO 550 (Labcyte, Sunnyvale, Calif.) into 384-well clear bottom assay plates (Greiner Bio-One) with appropriate DMSO backfill for a final DMSO concentration of 0.1%. LL29 cells were plated at 1,500 cells/well in 80 μl/well F12 medium supplemented with 1% Fetal Bovine Serum. One hour after addition of the cells, TGF-β1 (Peprotech; 20 ng/mL) was added to the plates to induce fibrosis (ref. 1 and 2 above). Wells treated with TGF-β1 and containing DMSO were used as controls. Cells were incubated at 37° C. and 5% CO2 for 4 days. Following incubation for 4 days, SYTOX green nucleic acid stain (Life Technologies [Thermo Fisher Scientific]) was added to the wells at a final concentration of 1 uM and incubated at room temperature for 30 min. Cells were then fixed using 4% formaldehyde (Electron Microscopy Sciences), washed 3 times with PBS followed by blocking and permeabilization using 3% Bovine Serum Albumin (BSA; Sigma) and 0.3% Triton X-100 (Sigma) in PBS. Cells were then stained with antibody specific to α-smooth muscle actin (αSMA; Abcam) (ref. 1 and 2 above) in 3% Bovine Serum Albumin (BSA; Sigma) and 0.3% Triton X-100 (Sigma) in PBS, and incubated overnight at 4° C. Cells were then washed 3 times with PBS, followed by incubation with Alexa Flor-647 conjugated secondary antibody (Life Technologies [Thermo Fisher Scientific]) and DAPI at room temperature for 1 hour. Cells were then washed 3 times with PBS and plates were sealed for imaging. αSMA staining was imaged by excitation at 630 nm and emission at 665 nm and quantified using the Compartmental Analysis program on the CellInsight CX5 (Thermo Scientific). Dead or apoptotic cells were excluded from analysis based on positive SYTOX green staining. % of total cells positive for αSMA were counted in each well and normalized to the average of 11 wells treated with TGF-β1 on the same plate using Dotmatics' Studies Software. The normalized averages (fold change over untreated) of 3 replicate wells for each compound concentration were used to create dose-responses curves and EC50 values were calculated using non-linear regression curve fit in the Dotmatics' Studies Software. The EC50 values are reported.

Structure (SMILES) | IC50 [1] [nM] | EC50 [2] [nM]
Fc1ccc(-c2cncc3[nH]c(-c4n[nH]c5cnc(-c6cncnc6)cc45)nc23)cc1 [Compound 52, 3-(7-(4-Fluorophenyl)-3H-imidazo[4,5-c]pyridin-2-yl)-5-(pyrimidin-5-yl)-1H-pyrazolo[3,4-c]pyridine] | 179 | 1200
Nc1cncc(-c2cc3c(-c4nc5c(-c6ccccc6F)cncc5[nH]4)n[nH]c3cn2)c1 [Compound 55, 5-(3-(7-(2-Fluorophenyl)-3H-imidazo[4,5-c]pyridin-2-yl)-1H-pyrazolo[3,4-c]pyridin-5-yl)pyridin-3-amine] | 70.4 | ≤ 9
CCNCc1cncc(-c2cc3c(-c4nc5c(-c6ccccc6F)cncc5[nH]4)n[nH]c3cn2)c1 [Compound 58, N-((5-(3-(7-(2-Fluorophenyl)-3H-imidazo[4,5-c]pyridin-2-yl)-1H-pyrazolo[3,4-c]pyridin-5-yl)pyridin-3-yl)methyl)ethanamine] | 40.2 | 41
CC(C)(C)C(=O)Nc1cncc(-c2cc3c(-c4nc5c(-c6ccccc6F)cncc5[nH]4)n[nH]c3cn2)c1 [Compound 60, N-(5-(3-(7-(2-Fluorophenyl)-3H-imidazo[4,5-c]pyridin-2-yl)-1H-pyrazolo[3,4-c]pyridin-5-yl)pyridin-3-yl)pivalamide] | 47 | ≥ 9990
CCCC(=O)Nc1cncc(-c2cc3c(-c4nc5c(-c6ccccc6F)cncc5[nH]4)n[nH]c3cn2)c1 [Compound 69, N-(5-(3-(7-(2-Fluorophenyl)-3H-imidazo[4,5-c]pyridin-2-yl)-1H-pyrazolo[3,4-c]pyridin-5-yl)pyridin-3-yl)butyramide] | 70.3 | 44
O=C(Nc1cncc(-c2cc3c(-c4nc5c(-c6ccccc6F)cncc5[nH]4)n[nH]c3cn2)c1)C1CCC1 [Compound 72, N-(5-(3-(7-(2-Fluorophenyl)-3H-imidazo[4,5-c]pyridin-2-yl)-1H-pyrazolo[3,4-c]pyridin-5-yl)pyridin-3-yl)cyclobutanecarboxamide] | 144 | ≤ 9
O=C(Nc1cncc(-c2cc3c(-c4nc5c(-c6ccccc6F)cncc5[nH]4)n[nH]c3cn2)c1)C1CCCC1 [Compound 73, N-(5-(3-(7-(2-Fluorophenyl)-3H-imidazo[4,5-c]pyridin-2-yl)-1H-pyrazolo[3,4-c]pyridin-5-yl)pyridin-3-yl)cyclopentanecarboxamide] | 156 | 4330
CCC(=O)Nc1cncc(-c2cc3c(-c4nc5c(-c6cccnc6)cncc5[nH]4)n[nH]c3cn2)c1 [Compound 79, N-(5-(3-(7-(Pyridin-3-yl)-3H-imidazo[4,5-c]pyridin-2-yl)-1H-pyrazolo[3,4-c]pyridin-5-yl)pyridin-3-yl)propionamide] | > 10000 | 18
c1cncc(-c2cc3c(-c4nc5c(-c6cccnc6)cncc5[nH]4)n[nH]c3cn2)c1 [Compound 82, 5-(Pyridin-3-yl)-3-(7-(pyridin-3-yl)-3H-imidazo[4,5-c]pyridin-2-yl)-1H-pyrazolo[3,4-c]pyridine] | > 10000 | ≥ 9990
c1cncc(-c2cncc3[nH]c(-c4n[nH]c5cnc(-c6cncc(CN7CCCCC7)c6)cc45)nc23)c1 [Compound 93, 5-(5-(Piperidin-1-ylmethyl)pyridin-3-yl)-3-(7-(pyridin-3-yl)-3H-imidazo[4,5-c]pyridin-2-yl)-1H-pyrazolo[3,4-c]pyridine] | 2850 | ≥ 9990
c1ccc(CNCc2cncc(-c3cc4c(-c5nc6c(-c7cccnc7)cncc6[nH]5)n[nH]c4cn3)c2)cc1 [Compound 101, N-Benzyl-1-(5-(3-(7-(pyridin-3-yl)-3H-imidazo[4,5-c]pyridin-2-yl)-1H-pyrazolo[3,4-c]pyridin-5-yl)pyridin-3-yl)methanamine] | 294 | ≥ 9990
Cc1ccncc1-c1cc2c(-c3nc4c(-c5ccncc5)cncc4[nH]3)n[nH]c2cn1 [Compound 109, 5-(4-Methylpyridin-3-yl)-3-(7-(pyridin-4-yl)-3H-imidazo[4,5-c]pyridin-2-yl)-1H-pyrazolo[3,4-c]pyridine] | > 10000 | ≥ 9990
CCCC(=O)Nc1cncc(-c2cc3c(-c4nc5c(-c6ccncc6)cncc5[nH]4)n[nH]c3cn2)c1 [Compound 121, N-(5-(3-(7-(Pyridin-4-yl)-3H-imidazo[4,5-c]pyridin-2-yl)-1H-pyrazolo[3,4-c]pyridin-5-yl)pyridin-3-yl)butyramide] | > 10000 | ≥ 9990
CCNCc1cncc(-c2cc3c(-c4nc5c(-c6ccccn6)cncc5[nH]4)n[nH]c3cn2)c1 [Compound 136, N-((5-(3-(7-(Pyridin-2-yl)-3H-imidazo[4,5-c]pyridin-2-yl)-1H-pyrazolo[3,4-c]pyridin-5-yl)pyridin-3-yl)methyl)ethanamine] | 562 | 598
O=C(Nc1cncc(-c2cc3c(-c4nc5c(-c6ccccn6)cncc5[nH]4)n[nH]c3cn2)c1)c1ccccc1 [Compound 141, N-(5-(3-(7-(Pyridin-2-yl)-3H-imidazo[4,5-c]pyridin-2-yl)-1H-pyrazolo[3,4-c]pyridin-5-yl)pyridin-3-yl)benzamide] | > 10000 | ≥ 9990
CCCCC(=O)Nc1cncc(-c2cc3c(-c4nc5c(-c6ccccn6)cncc5[nH]4)n[nH]c3cn2)c1 [Compound 148, N-(5-(3-(7-(Pyridin-2-yl)-3H-imidazo[4,5-c]pyridin-2-yl)-1H-pyrazolo[3,4-c]pyridin-5-yl)pyridin-3-yl)pentanamide] | > 10000 | ≥ 9990
c1ccc(-c2cncc3[nH]c(-c4n[nH]c5cnc(-c6cncc(CNCC7CCCC7)c6)cc45)nc23)nc1 [Compound 154, 1-Cyclopentyl-N-((5-(3-(7-(pyridin-2-yl)-3H-imidazo[4,5-c]pyridin-2-yl)-1H-pyrazolo[3,4-c]pyridin-5-yl)pyridin-3-yl)methyl)methanamine] | 945 | 649
CCC(=O)Nc1cncc(-c2cc3c(-c4nc5c(N6CCCCC6)cncc5[nH]4)n[nH]c3cn2)c1 [Compound 157, N-(5-(3-(7-(Piperidin-1-yl)-3H-imidazo[4,5-c]pyridin-2-yl)-1H-pyrazolo[3,4-c]pyridin-5-yl)pyridin-3-yl)propionamide] | 866 | 1560
CN(C)c1cncc(-c2cc3c(-c4nc5c(N6CCCCC6)cncc5[nH]4)n[nH]c3cn2)c1 [Compound 163, N,N-Dimethyl-5-(3-(7-(piperidin-1-yl)-3H-imidazo[4,5-c]pyridin-2-yl)-1H-pyrazolo[3,4-c]pyridin-5-yl)pyridin-3-amine] | 310 | 38
